These results are taken from patent US9145392B2, “Imidazole amines as modulators of kinase activity” (Merck Patent GmbH, priority 2011, dated 2015).

The target of one assay is His-AKT (Full Length) (Homo sapiens (Human), UniProt P31749). Put plainly: AKT enzyme assay. It is filed as biochemical. Conditions: read-out: IC50 AKT.
The next assay deals with P70S6K (T412E mutant) (Homo sapiens (Human), UniProt P23443, T412E). As to the kind of experiment: P70S6K enzyme assay. It is filed as biochemical. Conditions: read-out: IC50 p70S6K. The essentials: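 Read-out is the substrate/phosphopeptide ratio from mobility-shift electrophoresis on a LabChip 3000.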
Chain of P70S6K (T412E mutant) (P23443 whole entry T412E): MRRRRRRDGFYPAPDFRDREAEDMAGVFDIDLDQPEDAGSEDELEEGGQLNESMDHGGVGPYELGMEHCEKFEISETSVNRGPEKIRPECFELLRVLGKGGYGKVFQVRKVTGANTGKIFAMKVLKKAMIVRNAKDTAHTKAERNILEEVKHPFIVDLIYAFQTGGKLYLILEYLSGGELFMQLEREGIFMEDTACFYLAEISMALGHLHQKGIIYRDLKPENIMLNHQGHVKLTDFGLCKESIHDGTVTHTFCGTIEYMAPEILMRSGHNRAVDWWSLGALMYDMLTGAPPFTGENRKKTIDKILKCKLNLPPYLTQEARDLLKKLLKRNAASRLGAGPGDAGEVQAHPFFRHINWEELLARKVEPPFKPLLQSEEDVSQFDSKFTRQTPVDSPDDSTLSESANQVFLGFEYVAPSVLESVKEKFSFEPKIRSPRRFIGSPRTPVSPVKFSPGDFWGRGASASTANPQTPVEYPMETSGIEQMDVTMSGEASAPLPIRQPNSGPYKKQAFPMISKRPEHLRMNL

Chain of His-AKT (Full Length) (P31749 whole entry): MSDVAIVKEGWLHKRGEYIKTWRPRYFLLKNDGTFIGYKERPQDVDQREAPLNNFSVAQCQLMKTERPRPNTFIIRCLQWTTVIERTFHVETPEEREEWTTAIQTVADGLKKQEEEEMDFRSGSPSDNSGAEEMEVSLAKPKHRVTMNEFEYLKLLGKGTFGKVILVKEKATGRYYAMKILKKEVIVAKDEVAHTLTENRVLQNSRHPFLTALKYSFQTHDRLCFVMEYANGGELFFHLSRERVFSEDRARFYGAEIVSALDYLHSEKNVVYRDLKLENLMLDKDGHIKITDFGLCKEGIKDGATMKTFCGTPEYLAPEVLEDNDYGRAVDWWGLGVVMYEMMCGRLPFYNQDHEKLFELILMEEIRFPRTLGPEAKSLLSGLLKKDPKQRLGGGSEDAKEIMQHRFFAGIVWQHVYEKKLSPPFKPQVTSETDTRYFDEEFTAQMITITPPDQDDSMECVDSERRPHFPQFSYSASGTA

Consider `Nc1ncnc(N2CCC(c3nc(-c4ccc(C(F)(F)F)c(F)c4)cn3CCN3CCCC3)CC2)c1Cl` [Compound 235], for which the IC50 amounted to 1000 nM at His-AKT (Full Length) and 10 nM at P70S6K (T412E mutant).
For `NC(=O)c1c(N)ncnc1N1CCC(c2nc(-c3ccnc(C(F)(F)F)c3)cn2CCN2CCC2)CC1` [Compound 128] the same measures were 90 nM and 5.5 nM.
Consider `Cc1cc(-c2cn(CCNCC3CC3)c(C3CCN(c4ncnc(N)c4C(N)=O)CC3)n2)ccc1F` [Compound 383, 4-Amino-6-{4-[1-[2-(cyclopropylmethyl-amino)-ethyl]-4-(4-fluoro-3-methyl-phenyl)-1H-imidazol-2-yl]-piperidin-1-yl}-pyrimidine-5-carboxylic acid amide], for which the IC50 on His-AKT (Full Length) came out at 8.4 nM; at P70S6K (T412E mutant), 3.3 nM.
Turning to `N#Cc1c(N)ncnc1N1CCC(c2nc(-c3ccnc(C(F)(F)F)c3)cn2CCN2CCC2)CC1` [Compound 125, 4-amino-6-(4-(1-(2-(azetidin-1-yl)ethyl)-4-(2-(trifluoromethyl)pyridin-4-yl)-1H-imidazol-2-yl)piperidin-1-yl)pyrimidine-5-carbonitrile], the results for the IC50 at His-AKT (Full Length) and at P70S6K (T412E mutant) were 9.7 nM and 1.5 nM, respectively.
As to `Cn1cc(-c2ccc(F)c(C(F)(F)F)c2)nc1C1CCN(c2ncnc(N)c2-c2ccc(F)cc2)CC1` [Compound 10, 5-(4-Fluoro-phenyl)-6-{4-[4-(4-fluoro-3-trifluoromethyl-phenyl)-1-methyl-1H-imidazol-2-yl]-piperidin-1-yl}-pyrimidin-4-ylamine], the 50% inhibitory concentration (IC50) amounted to 2200 nM at His-AKT (Full Length) and 3.4 nM at P70S6K (T412E mutant).
For `CCc1c(N)ncnc1N1CCC(c2nc(-c3ccc(F)c(C(F)(F)F)c3)cn2CCN2CC(F)(F)C2)CC1` [Compound 94, 6-(4-(1-(2-(3,3-difluoroazetidin-1-yl)ethyl)-4-(4-fluoro-3-(trifluoromethyl)phenyl)-1H-imidazol-2-yl)piperidin-1-yl)-5-ethylpyrimidin-4-amine], the IC50 came to 1600 nM at His-AKT (Full Length) and 13 nM on P70S6K (T412E mutant).
Take `Cc1cc(-c2cn(CCO)c(C3CCN(c4ncnc(N)c4C(N)=O)CC3)n2)ccc1F` [Compound 393, 4-Amino-6-{4-[4-(4-fluoro-3-methyl-phenyl)-1-(2-hydroxy-ethyl)-1H-imidazol-2-yl]-piperidin-1-yl}-pyrimidine-5-carboxylic acid amide]: the IC50 on His-AKT (Full Length) was found to be 47 nM; on P70S6K (T412E mutant), 2.8 nM.
In the case of `CCc1c(N)ncnc1N1CCC(c2nc(-c3cnc(N(C)C)nc3)cn2CCN2CCC2)CC1` [Compound 352, 6-{4-[1-(2-Azetidin-1-yl-ethyl)-4-(2-dimethylamino-pyrimidin-5-yl)-1H-imidazol-2-yl]-piperidin-1-yl}-5-ethyl-pyrimidin-4-ylamine], the IC50 on His-AKT (Full Length) came out at 5700 nM; on P70S6K (T412E mutant), 310 nM.
Take `Nc1ncnc(N2CCC(c3nc(-c4ccc(F)c(C(F)(F)F)c4)cn3CCN3CCC3)CC2)c1-c1cn[nH]c1` [Compound 98, 6-(4-(1-(2-(azetidin-1-yl)ethyl)-4-(4-fluoro-3-(trifluoromethyl)phenyl)-1H-imidazol-2-yl)piperidin-1-yl)-5-(1H-pyrazol-4-yl)pyrimidin-4-amine]: the IC50 came out at 6.9 nM on His-AKT (Full Length) and 3 nM on P70S6K (T412E mutant).
In the case of `Nc1ncnc(N2CCC(c3nc(-c4ccc(F)c(C(F)(F)F)c4)cn3CCN3CCCC3)CC2)c1F` [Compound 211], the IC50 at His-AKT (Full Length) and on P70S6K (T412E mutant) was 23 nM in each case.
Turning to `Nc1ncnc(N2CCC(c3nc(-c4ccc(F)c(F)c4)cn3CCN3CCCC3)CC2)c1C1CCC1` [Compound 255], the 50% inhibitory concentration (IC50) at His-AKT (Full Length) was 9.4 nM; on P70S6K (T412E mutant) it was 6.9 nM.
`N#Cc1c(N)ncnc1N1CCC(c2nc(-c3ccc(F)c(C(F)(F)F)c3)cn2CCNC2CCCC2)CC1` [Compound 381, 4-Amino-6-{4-[1-(2-cyclopentylamino-ethyl)-4-(4-fluoro-3-trifluoromethyl-phenyl)-1H-imidazol-2-yl]-piperidin-1-yl}-pyrimidine-5-carbonitrile]: the IC50 worked out at 0.8 nM on His-AKT (Full Length) and 1.1 nM at P70S6K (T412E mutant).
As for `NC(=O)c1c(N)ncnc1N1CCC(c2nc(-c3ccc(F)c(C(F)(F)F)c3)cn2CC2CNC2)CC1` [Compound 140, 4-amino-6-(4-(1-(azetidin-3-ylmethyl)-4-(4-fluoro-3-(trifluoromethyl)phenyl)-1H-imidazol-2-yl)piperidin-1-yl)pyrimidine-5-carboxamide], the values for the IC50 at His-AKT (Full Length) and at P70S6K (T412E mutant) were 27 nM and 2.2 nM, respectively.
Consider `Nc1ncnc(N2CCC(c3nc(-c4ccc(F)c(Cl)c4)cn3CCN3CCCC3)CC2)c1Br` [Compound 268], for which the IC50 stood at 1.8 nM at His-AKT (Full Length) and 1.4 nM on P70S6K (T412E mutant).
`CCOc1c(N)ncnc1N1CCC(c2nc(-c3ccc(F)c(C(F)(F)F)c3)cn2CC2CNC2)CC1` [Compound 176, 6-(4-(1-(azetidin-3-ylmethyl)-4-(4-fluoro-3-(trifluoromethyl)phenyl)-1H-imidazol-2-yl)piperidin-1-yl)-5-ethoxypyrimidin-4-amine]: the IC50 at His-AKT (Full Length) worked out at 5 nM; on P70S6K (T412E mutant), 5.5 nM.
The like results for `COC(=O)c1ccc(-c2c(N)ncnc2N2CCC(c3nc(-c4ccc(F)c(C(F)(F)F)c4)cn3CCN3CCC3)CC2)cc1` [Compound 222] were, in that order, 43 nM and 11 nM.
On to `Cc1cc(-c2cn(CC3CN(CO)C3)c(C3CCN(c4ncnc(N)c4C(C)C)CC3)n2)ccc1F` [Compound 399, {3-[2-[1-(6-Amino-5-isopropyl-pyrimidin-4-yl)-piperidin-4-yl]-4-(4-fluoro-3-methyl-phenyl)-imidazol-1-ylmethyl]-azetidin-1-yl}-methanol], for which the IC50 is 56 nM at His-AKT (Full Length) and 2.5 nM on P70S6K (T412E mutant).
Consider `Cc1cc(-c2cn(CCN3CCCC3)c(C3CCN(c4ncnc(N)c4C(N)=O)CC3)n2)ccc1F` [Compound 350], for which the IC50 was 10 nM on His-AKT (Full Length) and 2.3 nM on P70S6K (T412E mutant).
For `CCc1c(N)ncnc1N1CCC(c2nc(-c3ccc(F)c(C(F)(F)F)c3)cn2CCN2CC(C)C2)CC1` [Compound 93, 5-ethyl-6-(4-(4-(4-fluoro-3-(trifluoromethyl)phenyl)-1-(2-(3-methylazetidin-1-yl)ethyl)-1H-imidazol-2-yl)piperidin-1-yl)pyrimidin-4-amine], the figures for the 50% inhibitory concentration (IC50) at His-AKT (Full Length) and on P70S6K (T412E mutant) were 7.7 nM and 3 nM, respectively.
Regarding `Nc1ncnc(N2CCC(c3nc(-c4ccc(F)c(C(F)(F)F)c4)cn3CCN3CCCCC3)CC2)c1-c1ccc(F)cc1` [Compound 62], the values for the IC50 at His-AKT (Full Length) and on P70S6K (T412E mutant) were 350 nM and 18 nM, respectively.
Consider `Cn1cc(-c2ccc(F)c(C(F)(F)F)c2)nc1C1CCN(c2ncnc(N)c2C=O)CC1` [Compound 6, 4-Amino-6-{4-[4-(4-fluoro-3-trifluoromethyl-phenyl)-1-methyl-1H-imidazol-2-yl]-piperidin-1-yl}-pyrimidine-5-carbaldehyde], for which the figures for the IC50 on His-AKT (Full Length) and on P70S6K (T412E mutant) were 160 nM and 0.6 nM, respectively.
For `N#Cc1c(N)ncnc1N1CCC(c2nc(-c3ccc4[nH]ncc4c3)cn2CCN2CCC2)CC1` [Compound 207, 4-Amino-6-{4-[1-(2-azetidin-1-yl-ethyl)-4-(1H-indazol-5-yl)-1H-imidazol-2-yl]-piperidin-1-yl}-pyrimidine-5-carbonitrile] the same measures were 105 nM and 22 nM.
Regarding `COc1ccc(-c2cn(CCN3CCC3)c(C3CCN(c4ncnc(N)c4C#N)CC3)n2)cc1Cl` [Compound 323], the results for the IC50 at His-AKT (Full Length) and on P70S6K (T412E mutant) were 31 nM and 8.3 nM, respectively.
For `C=C(C)c1c(N)ncnc1N1CCC(c2nc(-c3ccc(F)c(C(F)(F)F)c3)cn2CCN(C)C)CC1` [Compound 72, 6-{4-[1-(2-Dimethylamino-ethyl)-4-(4-fluoro-3-trifluoromethyl-phenyl)-1H-imidazol-2-yl]-piperidin-1-yl}-5-isopropenyl-pyrimidin-4-ylamine], the IC50 came to 15 nM on His-AKT (Full Length) and 5 nM at P70S6K (T412E mutant).
For `COCCN(C)CCn1cc(-c2ccc(F)c(C(F)(F)F)c2)nc1C1CCN(c2ncnc(N)c2C(N)=O)CC1` [Compound 366, 4-Amino-6-[4-(4-(4-fluoro-3-trifluoromethyl-phenyl)-1-{2-[(2-methoxy-ethyl)-methyl-amino]-ethyl}-1H-imidazol-2-yl)-piperidin-1-yl]-pyrimidine-5-carboxylic acid amide] the same measures were 440 nM and 9.2 nM.
Turning to `CCOc1c(N)ncnc1N1CCC(c2nc(-c3ccc(F)c(C)c3)cn2CCN(C)C)CC1` [Compound 293], the figures for the IC50 on His-AKT (Full Length) and on P70S6K (T412E mutant) were 1.7 nM and 1 nM, respectively.
On to `CCc1c(N)ncnc1N1CCC(c2nc(-c3ccc(C(F)(F)F)c(F)c3)cn2CCN2CCCC2)CC1` [Compound 234], for which the IC50 on His-AKT (Full Length) was found to be 470 nM; at P70S6K (T412E mutant) it was 13 nM.
Turning to `CCc1c(N)ncnc1N1CCC(c2nc(-c3ccc(C(F)(F)F)c(F)c3)cn2CCN2CC[C@H](F)C2)CC1` [Compound 245], the IC50 on His-AKT (Full Length) was 64 nM; on P70S6K (T412E mutant), 5.3 nM.
For `C=Cc1c(N)ncnc1N1CCC(c2nc(-c3ccc(F)cc3)cn2CCN2CCCC2)CC1` [Compound 241] the same measures were 16 nM and 2.9 nM.
Turning to `Nc1ncnc(N2CCC(c3nc(-c4ccc(F)c(C(F)(F)F)c4)cn3CCN3CCCCC3)CC2)c1Cl` [Compound 216], the results for the IC50 at His-AKT (Full Length) and at P70S6K (T412E mutant) were 9 nM and 3.8 nM, respectively.
As to `Cn1cc(-c2ccc(F)c(C(F)(F)F)c2)nc1C1CCN(c2ncnc(N)c2CO)CC1` [Compound 36, (4-Amino-6-{4-[4-(4-fluoro-3-trifluoromethyl-phenyl)-1-methyl-1H-imidazol-2-yl]-piperidin-1-yl}-pyrimidin-5-yl)-methanol], the figures for the IC50 on His-AKT (Full Length) and on P70S6K (T412E mutant) were 1100 nM and 2.2 nM, respectively.
`CC(C)(C)c1cc(-c2cn(CCN3CCC3)c(C3CCN(c4ncnc(N)c4C(N)=O)CC3)n2)ccn1` [Compound 343]: the IC50 at His-AKT (Full Length) was 170 nM; at P70S6K (T412E mutant), 5.5 nM.
On to `Cn1cc(-c2ccc(F)c(C(F)(F)F)c2)nc1C1CCN(c2ncnc(N)c2-c2ccc(CO)cc2)CC1` [Compound 14, [4-(4-Amino-6-{4-[4-(4-fluoro-3-trifluoromethyl-phenyl)-1-methyl-1H-imidazol-2-yl]-piperidin-1-yl}-pyrimidin-5-yl)-phenyl]-methanol], for which the IC50 at His-AKT (Full Length) was 250 nM; at P70S6K (T412E mutant) it was 1.9 nM.

As a reminder, the IC50 is the concentration that gives 50% inhibition.
